Patent US5420140A, “Difluorinated quinolones useful for treating bacterial infections” (Bouchara S.A., priority 1991, dated 1995)
Converted amounts (≈) assume the structure as drawn.

How the values were obtained:
[1] = test system: Bacillus subtilis ATCC 9372; test: Determination of MIC and MBC by microdilution method, Bacillus subtilis ATCC 9372; format: cell-based
Protocol: (§1) The compound have been tested towards 7 reference strains:
Bacillus subtilis ATCC 9372
(§2) The determination of minimal inhibitory concentrations (MIC) has been performed using a microdution method (microplates and inoculator Dynatech) in liquid medium (MUELLER-HINTON broth) under a volume of 100 μl and for a range of concentrations from 128 to 0.06 mg/l, prepared from a mother liquor of antibiotics titrating 512 mg/l. The preparation of these mother liquors has been performed and vary depending on the molecules as a function of the solubility criterions. Inoculation has been done by adding in each will, 10 μl of a dilution in saline of 18 hours old broth in a brain-heart broth, such as each well contains about 10^6 bacterias/ml.
(§3) The Minimal Inhibitory Concentrations are read as the first concentration of antibiotic which will not give a growth macroscopically detectable after 18 hours incubating at 37°.

[2] = test system: Staphylococcus aureus ATCC 25923; test: Determination of MIC and MBC by microdilution method, Staphylococcus aureus ATCC 25923; format: cell-based; settings: for MIC / MBC: Staphylococcus aureus; for MIC: ATCC25923, 18 h, read-out: Minimal inhibitory concentration (MIC); for MIC / Minimal bactericidal concentration (MBC) / Minimal inhibitory concentration (MIC): S. aureus ATCC 25923; for MIC / Minimal inhibitory concentration (MIC): Mueller-Hinton broth, 18 hours at 37°; for MBC: ATCC25923, S. aureus ATCC 25923, read-out: Minimal bactericidal concentration (MBC)
Protocol: as §1
Staphylococcus aureus ATCC 25923
as §2, §3

[3] = test system: Streptococcus faecalis ATCC 8043; test: Determination of MIC and MBC by microdilution method, Streptococcus faecalis ATCC 8043; format: cell-based; settings: for MBC / MIC: Enterococcus faecalis; for MBC: ATCC8043, S. faecalis ATCC 8043, read-out: Minimal bactericidal concentration (MBC); for MIC: ATCC8043, read-out: Minimal inhibitory concentration (MIC); for MIC / Minimal bactericidal concentration (MBC) / Minimal inhibitory concentration (MIC): S. faecalis ATCC 8043; for MIC / Minimal inhibitory concentration (MIC): Mueller-Hinton broth, 18 hours at 37°
Protocol: as §1
Streptococcus faecalis ATCC 8043
(§4) The preparation of these mother liquors has been performed and vary depending on the molecules as a function of the solubility criterions. Inoculation has been done by adding in each will, 10 μl of a dilution in saline of 18 hours old broth in a brain-heart broth, such as each well contains about 10^6 bacterias/ml. […]

[4] = test system: Escherichia coli ATCC 25922; test: Determination of MIC and MBC by microdilution method, Escherichia coli ATCC 25922; format: cell-based; settings: E. coli ATCC 25922; for MIC / MBC: Escherichia coli, ATCC25922; for MIC / Minimal inhibitory concentration (MIC): Mueller-Hinton broth, 18 hours at 37°; for MIC: read-out: Minimal inhibitory concentration (MIC); for MBC: read-out: Minimal bactericidal concentration (MBC)
Protocol: as §1
Escherichia coli ATCC 25922
as §2, §3

[5] = test system: Pseudomonas aeruginosa ATCC 22853; test: Determination of MIC and MBC by microdilution method, Pseudomonas aeruginosa ATCC 22853; format: cell-based; settings: for MIC / MBC: Pseudomonas aeruginosa; for MIC: ATCC22853, 18 h, read-out: Minimal inhibitory concentration (MIC); for MIC / Minimal bactericidal concentration (MBC) / Minimal inhibitory concentration (MIC): P. aeruginosa ATCC 22853; for MIC / Minimal inhibitory concentration (MIC): Mueller-Hinton broth, 18 hours at 37°; for MBC: ATCC22853, P. aeruginosa ATCC 22853, read-out: Minimal bactericidal concentration (MBC)
Protocol: as §1
Pseudomonas aeruginosa ATCC 22853
as §4

[6] = test system: Acinetobacter Baumanii ATCC 17904; test: Determination of MIC and MBC by microdilution method, Acinetobacter; format: cell-based; settings: for MIC / MBC: Acinetobacter baumannii; for MIC: ATCC17904, 18 h, read-out: Minimal inhibitory concentration (MIC); for MIC / Minimal bactericidal concentration (MBC) / Minimal inhibitory concentration (MIC): Acinetobacter Baumanii ATCC 17904; for MIC / Minimal inhibitory concentration (MIC): Mueller-Hinton broth, 18 hours at 37°; for MBC: ATCC17904, Acinetobacter Baumanii ATCC 17904, read-out: Minimal bactericidal concentration (MBC)
Protocol: The compound have been tested towards 7 reference strains: […]
as §2, §3

[7] = test system: S. aureus CB-951; test: Determination of MIC and MBC by microdilution method, S. aureus CB-951; format: cell-based, Staphylococcus aureus; settings: erythromycinolincomycino, pefloxacino resistant; for MIC / MBC: Staphylococcus aureus; for MIC: CB951, 18 h, read-out: Minimal inhibitory concentration (MIC); for MIC / Minimal bactericidal concentration (MBC) / Minimal inhibitory concentration (MIC): S. aureus CB-951, methicillino; for MIC / Minimal inhibitory concentration (MIC): Mueller-Hinton broth, 18 hours at 37°; for MBC: CB951, S. aureus CB-951, methicillino, read-out: Minimal bactericidal concentration (MBC)
Protocol: as §1
Staphylococcus aureus CB 951
as §2, §3

Row | MIC [2] [µg/mL] | MIC [3] [µg/mL] | MIC [4] [µg/mL] | MIC [5] [µg/mL] | MIC [6] [µg/mL] | MIC [7] [µg/mL] | Structure (SMILES) | MBC [2] [µg/mL] | MBC [3] [µg/mL] | MBC [4] [µg/mL] | MBC [5] [µg/mL] | MBC [6] [µg/mL] | MBC [7] [µg/mL] | other results
1 | 0.15 (≈ 0.341 µM) | 6 (≈ 13.7 µM) | 6 (≈ 13.7 µM) | > 12 | 0.3 (≈ 0.683 µM) | 0.3 (≈ 0.683 µM) | CCC(=O)NCC1CCN(c2c(F)cc3c(=O)c(C(=O)O)cn(CCF)c3c2F)CC1 [Compound 8, 7-[(4-propionylaminomethyl)piperidinyl-1] 6,8-difluoro1-fluoroethyl 4-oxo 1,4-dihydroquinoleinyl-3 carboxylic acid] | 0.3 (≈ 0.683 µM) | > 12 | > 12 | > 12 | 0.7 (≈ 1.59 µM) | 0.7 (≈ 1.59 µM) | 
2 | 0.15 (≈ 0.31 µM) | 25 (≈ 51.6 µM) | 0.7 (≈ 1.44 µM) | 3 (≈ 6.19 µM) | 0.3 (≈ 0.619 µM) | 0.3 (≈ 0.619 µM) | CCn1cc(C(=O)O)c(=O)c2cc(F)c(N3CCC(CNC(=O)Nc4ccccc4)CC3)c(F)c21 [Compound 10, 7-[(4-Phenylaminocarboxamidomethyl)piperidinyl-1] 6,8-difluoro 1-ethyl 4-oxo 1,4-dihydroquinoleinyl-3 carboxylic acid] | 0.3 (≈ 0.619 µM) | > 25 | 0.7 (≈ 1.44 µM) | 6 (≈ 12.4 µM) | 0.7 (≈ 1.44 µM) | 1.5 (≈ 3.1 µM) | 
3 | 0.06 (≈ 0.12 µM) | 4 (≈ 8.02 µM) | > 16 | > 16 | 0.06 (≈ 0.12 µM) | 0.25 (≈ 0.501 µM) | CCn1cc(C(=O)O)c(=O)c2cc(F)c(N3CCC(CNC(=O)Nc4ccc(C)cc4)CC3)c(F)c21 [Compound 12] | 0.06 (≈ 0.12 µM) | 4 (≈ 8.02 µM) | > 16 | > 16 | 0.06 (≈ 0.12 µM) | 1 (≈ 2.01 µM) | 
4 | 0.12 (≈ 0.239 µM) | > 16 | > 16 | > 16 | 0.06 (≈ 0.119 µM) | 0.25 (≈ 0.498 µM) | CCn1cc(C(=O)O)c(=O)c2cc(F)c(N3CCC(CNC(=O)Nc4cccc(F)c4)CC3)c(F)c21 [Compound 13, 7-[4-(3-fluorophenyl)aminocarbonylaminomethylpiperidinyl-1] 6,8-difluoro 1-ethyl] | 0.25 (≈ 0.498 µM) | > 16 | > 16 | > 16 | 0.06 (≈ 0.119 µM) | 0.5 (≈ 0.995 µM) | 
5 | 2 (≈ 3.61 µM) | > 16 | > 16 | > 16 | 4 (≈ 7.23 µM) | 16 (≈ 28.9 µM) | CCn1cc(C(=O)O)c(=O)c2cc(F)c(N3CCC(CNC(=O)Nc4ccc(Cl)c(Cl)c4)CC3)c(F)c21 [Compound 14, 7-[4-(3,4-dichlorophenyl)aminocarbonylaminomethylpiperidinyl-1] 6,8-difluoro 1-ethyl] | 8 (≈ 14.5 µM) | > 16 | > 16 | > 16 | 8 (≈ 14.5 µM) | > 16 | 
6 | 0.12 (≈ 0.216 µM) | > 16 | > 16 | > 16 | 0.12 (≈ 0.216 µM) | 1 (≈ 1.8 µM) | CCOC(=O)c1ccc(NC(=O)NCC2CCN(c3c(F)cc4c(=O)c(C(=O)O)cn(CC)c4c3F)CC2)cc1 [Compound 15, 7-[4-(4-ethoxycarbonylphenyl)aminocarbonylaminomethylpiperidinyl-1] 6,8-difluoro 1-ethyl] | 0.12 (≈ 0.216 µM) | > 16 | > 16 | > 16 | 0.25 (≈ 0.449 µM) | 2 (≈ 3.59 µM) | 
7 | 0.06 (≈ 0.117 µM) | 8 (≈ 15.5 µM) | 16 (≈ 31.1 µM) | > 16 | 0.06 (≈ 0.117 µM) | 0.5 (≈ 0.972 µM) | CCn1cc(C(=O)O)c(=O)c2cc(F)c(N3CCC(CNC(=O)Nc4ccc(OC)cc4)CC3)c(F)c21 [Compound 16, 7-[4-(4-methoxyphenyl)aminocarbonylaminomethylpiperidinyl-1] 6,8-difluoro1-ethyl] | 0.06 (≈ 0.117 µM) | 16 (≈ 31.1 µM) | 16 (≈ 31.1 µM) | > 16 | 0.03 (≈ 0.0583 µM) | 1 (≈ 1.94 µM) | 
8 | ≤ 0.12 | 2 (≈ 3.84 µM) | 2 (≈ 3.84 µM) | > 16 | ≤ 0.12 | 0.25 (≈ 0.48 µM) | CCn1cc(C(=O)O)c(=O)c2cc(F)c(N3CCC(CNC(=O)Nc4ccc(F)cc4F)CC3)c(F)c21 [Compound 18, 7-[4-(2,4-difluorophenyl)aminocarbonylaminomethylpiperidinyl-1] 6,8-difluoro 1-ethyl] | ≤ 0.12 | 2 (≈ 3.84 µM) | 4 (≈ 7.69 µM) | > 16 | ≤ 0.12 | 0.25 (≈ 0.48 µM) | 
9 |  |  |  |  |  |  | CCn1cc(C(=O)O)c(=O)c2cc(F)c(N3CCC(CN)CC3)c(F)c21 [Compound a, 7-(4-aminomethylpiperidinyl-1) 6,8-difluoro 1-ethyl 4-oxo 1,4-dihydroquinoleinyl-3 carboxylic acid] |  |  |  |  |  |  | Minimal bactericidal concentration (MBC) [2]: 0,25 μg/ml; Minimal inhibitory concentration (MIC) [2]: 0,25 μg/ml; Minimal bactericidal concentration (MBC) [3]: 0,5 μg/ml; Minimal inhibitory concentration (MIC) [3]: 0,5 μg/ml; Minimal bactericidal concentration (MBC) [4]: 0,5 μg/ml; Minimal inhibitory concentration (MIC) [4]: 0,5 μg/ml; Minimal bactericidal concentration (MBC) [5]: 4 µg/mL (≈ 10.9 µM); Minimal inhibitory concentration (MIC) [5]: 2 µg/mL (≈ 5.47 µM); Minimal bactericidal concentration (MBC) [6]: 0,25 μg/ml; Minimal inhibitory concentration (MIC) [6]: 0,25 μg/ml; Minimal bactericidal concentration (MBC) [7]: 2 µg/mL (≈ 5.47 µM); Minimal inhibitory concentration (MIC) [7]: 2 µg/mL (≈ 5.47 µM)
10 |  |  |  |  |  |  | CCn1cc(C(=O)O)c(=O)c2cc(F)c(N3CCC(CN)CC3)c(F)c21 [Compound b, 7-(4-aminomethylpiperidinyl-1) 6,8-difluoro 1-ethyl 4-oxo 1,4-dihydroquinoleinyl-3 carboxylic acid] |  |  |  |  |  |  | Minimal bactericidal concentration (MBC) [2]: 0,5 μg/ml; Minimal inhibitory concentration (MIC) [2]: 0,5 μg/ml; Minimal bactericidal concentration (MBC) [3]: 1 µg/mL (≈ 2.74 µM); Minimal inhibitory concentration (MIC) [3]: 0,5 μg/ml; Minimal bactericidal concentration (MBC) [4]: 0,5 μg/ml; Minimal inhibitory concentration (MIC) [4]: 0,5 μg/ml; Minimal bactericidal concentration (MBC) [5]: 8 µg/mL (≈ 21.9 µM); Minimal inhibitory concentration (MIC) [5]: 4 µg/mL (≈ 10.9 µM); Minimal bactericidal concentration (MBC) [6]: 0,5 μg/ml; Minimal inhibitory concentration (MIC) [6]: 0,5 μg/ml; Minimal bactericidal concentration (MBC) [7]: 4 µg/mL (≈ 10.9 µM); Minimal inhibitory concentration (MIC) [7]: 4 µg/mL (≈ 10.9 µM)
11 | 0.12 (≈ 0.36 µM) | 1 (≈ 3 µM) | 0.06 (≈ 0.18 µM) | 2 (≈ 6 µM) | 0.06 (≈ 0.18 µM) | 4 (≈ 12 µM) | CCn1cc(C(=O)O)c(=O)c2cc(F)c(N3CCN(C)CC3)cc21 [Pefloxacine, reference compound] | 0.25 (≈ 0.75 µM) | 1 (≈ 3 µM) | 0.06 (≈ 0.18 µM) | 2 (≈ 6 µM) | 0.06 (≈ 0.18 µM) | 4 (≈ 12 µM) | 

Row | Structure (SMILES) | MIC [2] [µg/mL] | MIC [3] [µg/mL] | MIC [4] [µg/mL] | MIC [5] [µg/mL] | MIC [6] [µg/mL] | MIC [7] [µg/mL] | MBC [2] [µg/mL] | MBC [3] [µg/mL] | MBC [4] [µg/mL] | MBC [5] [µg/mL] | MBC [6] [µg/mL] | MBC [7] [µg/mL] | other results
12 | CCn1cc(C(=O)O)c(=O)c2cc(F)c(N3CCC(CN)CC3)c(F)c21 [Compound 1, 7-(4-aminomethylpiperidinyl-1) 6,8-difluoro 1-ethyl 4-oxo 1,4-dihydroquinoleinyl-3 carboxylic acid] | 0.25 (≈ 0.684 µM) | 0.5 (≈ 1.37 µM) | 0.5 (≈ 1.37 µM) | 2 (≈ 5.47 µM) | 0.25 (≈ 0.684 µM) | 2 (≈ 5.47 µM) | 0.25 (≈ 0.684 µM) | 0.5 (≈ 1.37 µM) | 0.5 (≈ 1.37 µM) | 4 (≈ 10.9 µM) | 0.5 (≈ 1.37 µM) | 2 (≈ 5.47 µM) | MIC ([1]; ATCC9372, Mueller-Hinton broth, 18 hours at 37°, read-out: Minimal inhibitory concentration (MIC)): 0.25 µg/mL (≈ 0.684 µM); MBC ([1]; ATCC9372, read-out: Minimal bactericidal concentration (MBC)): 0.25 µg/mL (≈ 0.684 µM)
